# Like-named read-outs stand apart in the source and are kept apart here.
# How the values were obtained:
# [1] = tested on: rat; test: Rat hot plate test, single intravenous elcatonin (Example 10); format: in vivo
# Method: A total of 24 rats, ranging in weight from 320 to 420 g, was used in this study. Four to eight rats were used for each dose level. […] The doses used were 10, 30, 100 and 300 IU/kg (1.61, 4.83, 16.1 and 48.3 μg/kg, respectively).
# [2] = tested on: rat; test: Rat hot plate test, five consecutive daily intrathecal doses of elcatonin (Example 11); format: in vivo; details: 4.4 IU/kg intrathecal, five consecutive daily doses (FIG. 7)
# Method: Intrathecal catheters were implanted in rats as described hereinabove, and a 7-10 day period thereafter allowed for full recovery from the surgical procedures.
# Eighteen rats were assigned to three treatment groups of six rats per group. The study is conducted in two treatment phases at one week intervals. Treatment Group I rats receive no treatment. Group II rats receive five consecutive daily intrathecal doses of sterile physiological saline (vehicle control).
# For each treatment, hot plate latencies are determined as described in Example 5 herein above at 0 minutes (predose, baseline), 1 hour, 3 hours, and 24 hours following injection on the first, third, and fifth study days.
# [3] = tested on: rat
# Method: Intrathecal catheters were surgically implanted in the rats after application of anesthetic (Nembutal, 30 mg/kg, intraperitoneal) 5-7 days prior to the test procedure. The 5-7 day period prior to testing allowed for full recovery from the surgical procedures. […] Each catheter was anchored to the skull with cyanoacrylate adhesive, and the skull was closed with wound clips. The free end of each catheter was heat annealed; when compositions were to be injected via the intrathecal route each composition was introduced therein using a Hamilton needle inserted into the sealed catheter.
# Pain sensitivity was assessed using a standard analgesiometric hot plate test (Woolfe and MacDonald (1944) J. Pharmacol. Exp. Ther. 80:300). The hot plate response was determined by placing a rat on a 55° C. copper hot plate enclosed in a plexiglass cylinder.
# Because of the technical demands of these experiments, no more than 8-9 rats were tested on a given day. Sufficient animals were studied to obtain 10-11 evaluable rats per test condition. On the study day, animals were tested for baseline hot plate responses, and then received bolus injections of test analgesic or physiological saline (control). Hot plate responses were assessed again at 15 min, 30 min, 1 hr, 3 hr, 6 hr and 24 hr after intrathecal injection of test compound or vehicle control.
# Ninety-six (96) rats, ranging in weight from 320 g to 420 g, were used in this study. Catheters were implanted and recovery was allowed for as described hereinabove. […] Drug or saline vehicle doses were administered using Hamilton needles inserted into the catheters, with a dose volumes of 37.5 μL/kg followed by a 10 μL saline catheter wash-out. Baseline (pre-drug) and responses at 15 min, 30 min, 1 hr, 3 hr, 6 hr and 24 hr after drug or vehicle injection were determined.
# [4] = intrathecal, 30 min post-injection
substance,measurement,setting,value
"[Des-Cys^1,ASU^7 ]-Calcitonin, Eel [Elcatonin]",Hot Plate Latency (Mean ± SEM),"[1]; 100.0 IU/kg (16.1 μg/kg) intravenous single, 1 hr",11.20 ± 1.95 s
same,Hot Plate Latency (Mean ± SEM),"[1]; 100.0 IU/kg (16.1 μg/kg) intravenous single, 3 hr",14.76 ± 1.19 s
same,Hot Plate Latency (Mean ± SEM),"[1]; 100.0 IU/kg (16.1 μg/kg) intravenous single, 6 hr",14.00 ± 1.83 s
same,Hot Plate Latency (Mean ± SEM),"[1]; 100.0 IU/kg (16.1 μg/kg) intravenous single, 24 hr",14.30 ± 1.33 s
same,Hot Plate Latency (Mean ± SEM),"[1]; 300.0 IU/kg (48.3 μg/kg) intravenous single, 0 hr (baseline)",11.22 ± 0.38 s
same,Hot Plate Latency (Mean ± SEM),"[1]; 300.0 IU/kg (48.3 μg/kg) intravenous single, 0.25 hr",11.05 ± 3.82 s
same,Hot Plate Latency (Mean ± SEM),"[1]; 300.0 IU/kg (48.3 μg/kg) intravenous single, 0.5 hr",11.65 ± 2.31 s
same,Hot Plate Latency (Mean ± SEM),"[1]; 300.0 IU/kg (48.3 μg/kg) intravenous single, 1 hr",12.65 ± 2.09 s
same,Hot Plate Latency (Mean ± SEM),"[1]; 300.0 IU/kg (48.3 μg/kg) intravenous single, 3 hr",17.37 ± 4.25 s
same,Hot Plate Latency (Mean ± SEM),"[1]; 300.0 IU/kg (48.3 μg/kg) intravenous single, 6 hr",11.55 ± 2.80 s
same,Hot Plate Latency (Mean ± SEM),"[1]; 300.0 IU/kg (48.3 μg/kg) intravenous single, 24 hr",10.52 s
same,intravenous dose producing a hot plate latency similar to 1.6 IU/kg (0.25 μg/kg) intrathecal,[1]; at 0.5 hr,10.0 IU/kg
same,increase in hot plate latencies,"[1]; intravenous, 10-300 IU/kg",only small increases in hot plate latencies
same,time of peak effects,"[1]; intravenous, 10 IU/kg",30 min
same,dose response effect,"[1]; intravenous, 10 to 300 IU/kg",No significant dose response effect was observed
same,time of peak effects,"[1]; intravenous, 30-300 IU/kg",180 to 360 min
same,hot plate latency,[2],hot plate latency is increased
same,hot plate latency at 24 hr after each successive injection,[2],"greater hot plate latency, and a cumulative analgesic effect over time"
same,Hot Plate Latency (Mean ± SEM),"[3]; 2.4 IU/kg (0.39 μg/kg, 0.12 nmol/kg) intrathecal single, 0 hr (baseline)",13.54 ± 1.91 s
same,Hot Plate Latency (Mean ± SEM),"[3]; 2.4 IU/kg (0.39 μg/kg, 0.12 nmol/kg) intrathecal single, 0.25 hr",19.70 ± 1.75 s
same,Hot Plate Latency (Mean ± SEM),"[3]; 2.4 IU/kg (0.39 μg/kg, 0.12 nmol/kg) intrathecal single, 0.5 hr",23.90 ± 3.12 s
same,Hot Plate Latency (Mean ± SEM),"[3]; 2.4 IU/kg (0.39 μg/kg, 0.12 nmol/kg) intrathecal single, 1 hr",24.68 ± 1.80 s
same,Hot Plate Latency (Mean ± SEM),"[3]; 2.4 IU/kg (0.39 μg/kg, 0.12 nmol/kg) intrathecal single, 3 hr",13.0 ± 0.7 s
same,Hot Plate Latency (Mean ± SEM),"[3]; 2.4 IU/kg (0.39 μg/kg, 0.12 nmol/kg) intrathecal single, 6 hr",12.1 s
same,Hot Plate Latency (Mean ± SEM),"[3]; 2.4 IU/kg (0.39 μg/kg, 0.12 nmol/kg) intrathecal single, 24 hr",10.8 ± 0.7 s
same,response at the lowest dose,[3]; 2.4 IU/kg or 0.39 μg/kg intrathecal,slightly smaller response
same,differences in hot plate latencies between doses,[3]; 3.6-6.0 IU/kg intrathecal,no apparent differences in hot plate latencies
same,Hot Plate Latency (Mean ± SEM),"[3]; 3.6 IU/kg (0.58 μg/kg, 0.18 nmol/kg) intrathecal single, 0 hr (baseline)",12.92 ± 1.4 s
same,Hot Plate Latency (Mean ± SEM),"[3]; 3.6 IU/kg (0.58 μg/kg, 0.18 nmol/kg) intrathecal single, 0.25 hr",21.04 ± 2.22 s
same,Hot Plate Latency (Mean ± SEM),"[3]; 3.6 IU/kg (0.58 μg/kg, 0.18 nmol/kg) intrathecal single, 0.5 hr",26.03 ± 3.08 s
same,Hot Plate Latency (Mean ± SEM),"[3]; 3.6 IU/kg (0.58 μg/kg, 0.18 nmol/kg) intrathecal single, 1 hr",26.08 ± 3.69 s
same,Hot Plate Latency (Mean ± SEM),"[3]; 3.6 IU/kg (0.58 μg/kg, 0.18 nmol/kg) intrathecal single, 3 hr",23.14 ± 3.05 s
same,Hot Plate Latency (Mean ± SEM),"[3]; 3.6 IU/kg (0.58 μg/kg, 0.18 nmol/kg) intrathecal single, 6 hr",20.37 s
same,Hot Plate Latency (Mean ± SEM),"[3]; 3.6 IU/kg (0.58 μg/kg, 0.18 nmol/kg) intrathecal single, 24 hr",15.79 ± 2.40 s
same,Hot Plate Latency (Mean ± SEM),"[3]; 4.4 IU/kg ([…], 0.22 nmol/kg) intrathecal single, 0 hr (baseline)",13.68 ± 1.10 s
same,Hot Plate Latency (Mean ± SEM),"[3]; 4.4 IU/kg ([…], 0.22 nmol/kg) intrathecal single, 0.25 hr",21.89 ± 3.12 s
same,Hot Plate Latency (Mean ± SEM),"[3]; 4.4 IU/kg ([…], 0.22 nmol/kg) intrathecal single, 0.5 hr",26.03 ± 3.36 s
same,Hot Plate Latency (Mean ± SEM),"[3]; 4.4 IU/kg ([…], 0.22 nmol/kg) intrathecal single, 1 hr",26.20 ± 2.37 s
same,Hot Plate Latency (Mean ± SEM),"[3]; 4.4 IU/kg ([…], 0.22 nmol/kg) intrathecal single, 3 hr",21.11 ± 2.18 s
same,Hot Plate Latency (Mean ± SEM),"[3]; 4.4 IU/kg ([…], 0.22 nmol/kg) intrathecal single, 6 hr",20.02 s
same,Hot Plate Latency (Mean ± SEM),"[3]; 4.4 IU/kg ([…], 0.22 nmol/kg) intrathecal single, 24 hr",11.78 ± 1.75 s
same,Hot Plate Latency (Mean ± SEM),"[3]; 5.2 IU/kg (0.84 μg/kg, 0.26 nmol/kg) intrathecal single, 0 hr (baseline)",13.41 ± 0.92 s
same,Hot Plate Latency (Mean ± SEM),"[3]; 5.2 IU/kg (0.84 μg/kg, 0.26 nmol/kg) intrathecal single, 0.25 hr",27.89 ± 3.10 s
same,Hot Plate Latency (Mean ± SEM),"[3]; 5.2 IU/kg (0.84 μg/kg, 0.26 nmol/kg) intrathecal single, 0.5 hr",31.55 ± 4.17 s
same,Hot Plate Latency (Mean ± SEM),"[3]; 5.2 IU/kg (0.84 μg/kg, 0.26 nmol/kg) intrathecal single, 1 hr",25.82 ± 3.79 s
same,Hot Plate Latency (Mean ± SEM),"[3]; 5.2 IU/kg (0.84 μg/kg, 0.26 nmol/kg) intrathecal single, 3 hr",28.81 ± 3.41 s
same,Hot Plate Latency (Mean ± SEM),"[3]; 5.2 IU/kg (0.84 μg/kg, 0.26 nmol/kg) intrathecal single, 6 hr",22.97 s
same,Hot Plate Latency (Mean ± SEM),"[3]; 5.2 IU/kg (0.84 μg/kg, 0.26 nmol/kg) intrathecal single, 24 hr",12.36 ± 1.69 s
same,Hot Plate Latency (Mean ± SEM),"[3]; 6.0 IU/kg (0.97 μg/kg, 0.30 nmol/kg) intrathecal single, 0 hr (baseline)",11.38 ± 0.89 s
same,Hot Plate Latency (Mean ± SEM),"[3]; 6.0 IU/kg (0.97 μg/kg, 0.30 nmol/kg) intrathecal single, 0.25 hr",25.22 ± 4.13 s
same,Hot Plate Latency (Mean ± SEM),"[3]; 6.0 IU/kg (0.97 μg/kg, 0.30 nmol/kg) intrathecal single, 0.5 hr",28.91 ± 3.40 s
same,Hot Plate Latency (Mean ± SEM),"[3]; 6.0 IU/kg (0.97 μg/kg, 0.30 nmol/kg) intrathecal single, 1 hr",24.48 ± 3.35 s
same,Hot Plate Latency (Mean ± SEM),"[3]; 6.0 IU/kg (0.97 μg/kg, 0.30 nmol/kg) intrathecal single, 3 hr",26.60 ± 3.87 s
same,Hot Plate Latency (Mean ± SEM),"[3]; 6.0 IU/kg (0.97 μg/kg, 0.30 nmol/kg) intrathecal single, 6 hr",24.69 s
same,Hot Plate Latency (Mean ± SEM),"[3]; 6.0 IU/kg (0.97 μg/kg, 0.30 nmol/kg) intrathecal single, 24 hr",11.17 ± 1.80 s
same,hot plate analgesia compared with morphine sulfate (49.42-164.73 nmol/kg),"[3]; 6 hours post-injection, all tested doses of elcatonin (0.12-0.30 nmol/kg)",more potent hot plate analgesia than all tested doses of morphine sulfate
same,"duration of analgesia, elcatonin compared with morphine",[3]; intrathecal,generally longer duration of analgesic activity than morphine
same,"molar concentration producing potent analgesia, lower than morphine sulfate by",[3]; intrathecal,approximately 1000 fold
same,dose approximately equivalent to 164.73 nmol/kg morphine sulfate (125.0 μg/kg),[3]; [4],~0.18 nmol/kg
same,dose producing a hot plate latency similar to 98.84 nmol/kg morphine sulfate (75.0 μg/kg),[3]; [4],~0.12 nmol/kg
same,onset of antinociception/analgesia post-injection,"[3]; intrathecal, all tested doses",≤ 15 min
same,time of peak antinociception,"[3]; intrathecal, all tested doses (2.4-6.0 IU/kg)",30 to 60 min
same,analgesia compared to intrathecal morphine,"[3]; rat hot plate, intrathecal",dramatically improved analgesia
